Measured values as given in US12448369B2 (Edgewise Therapeutics, Inc., priority 2023, dated 2025).

How the values were obtained:
[1] = biological target: T1, Porcine ventricle myofibrils (ventricular myosin ATPase) (Sus scrofa, UniProt P79293); experiment: Myofibril ATPase assay, porcine ventricle myofibrils; type: biochemical, porcine (Yucatan minipigs); details: porcine ventricle myofibrils
T1 construct: Myofibrils from porcine cardiac muscle was isolated from the left ventricle of Yucatan minipigs; tissue Exemplar Genetics; host or cells: left ventricle of Yucatan minipigs, myofibrils prepared in house
T1 sequence (P79293 whole entry): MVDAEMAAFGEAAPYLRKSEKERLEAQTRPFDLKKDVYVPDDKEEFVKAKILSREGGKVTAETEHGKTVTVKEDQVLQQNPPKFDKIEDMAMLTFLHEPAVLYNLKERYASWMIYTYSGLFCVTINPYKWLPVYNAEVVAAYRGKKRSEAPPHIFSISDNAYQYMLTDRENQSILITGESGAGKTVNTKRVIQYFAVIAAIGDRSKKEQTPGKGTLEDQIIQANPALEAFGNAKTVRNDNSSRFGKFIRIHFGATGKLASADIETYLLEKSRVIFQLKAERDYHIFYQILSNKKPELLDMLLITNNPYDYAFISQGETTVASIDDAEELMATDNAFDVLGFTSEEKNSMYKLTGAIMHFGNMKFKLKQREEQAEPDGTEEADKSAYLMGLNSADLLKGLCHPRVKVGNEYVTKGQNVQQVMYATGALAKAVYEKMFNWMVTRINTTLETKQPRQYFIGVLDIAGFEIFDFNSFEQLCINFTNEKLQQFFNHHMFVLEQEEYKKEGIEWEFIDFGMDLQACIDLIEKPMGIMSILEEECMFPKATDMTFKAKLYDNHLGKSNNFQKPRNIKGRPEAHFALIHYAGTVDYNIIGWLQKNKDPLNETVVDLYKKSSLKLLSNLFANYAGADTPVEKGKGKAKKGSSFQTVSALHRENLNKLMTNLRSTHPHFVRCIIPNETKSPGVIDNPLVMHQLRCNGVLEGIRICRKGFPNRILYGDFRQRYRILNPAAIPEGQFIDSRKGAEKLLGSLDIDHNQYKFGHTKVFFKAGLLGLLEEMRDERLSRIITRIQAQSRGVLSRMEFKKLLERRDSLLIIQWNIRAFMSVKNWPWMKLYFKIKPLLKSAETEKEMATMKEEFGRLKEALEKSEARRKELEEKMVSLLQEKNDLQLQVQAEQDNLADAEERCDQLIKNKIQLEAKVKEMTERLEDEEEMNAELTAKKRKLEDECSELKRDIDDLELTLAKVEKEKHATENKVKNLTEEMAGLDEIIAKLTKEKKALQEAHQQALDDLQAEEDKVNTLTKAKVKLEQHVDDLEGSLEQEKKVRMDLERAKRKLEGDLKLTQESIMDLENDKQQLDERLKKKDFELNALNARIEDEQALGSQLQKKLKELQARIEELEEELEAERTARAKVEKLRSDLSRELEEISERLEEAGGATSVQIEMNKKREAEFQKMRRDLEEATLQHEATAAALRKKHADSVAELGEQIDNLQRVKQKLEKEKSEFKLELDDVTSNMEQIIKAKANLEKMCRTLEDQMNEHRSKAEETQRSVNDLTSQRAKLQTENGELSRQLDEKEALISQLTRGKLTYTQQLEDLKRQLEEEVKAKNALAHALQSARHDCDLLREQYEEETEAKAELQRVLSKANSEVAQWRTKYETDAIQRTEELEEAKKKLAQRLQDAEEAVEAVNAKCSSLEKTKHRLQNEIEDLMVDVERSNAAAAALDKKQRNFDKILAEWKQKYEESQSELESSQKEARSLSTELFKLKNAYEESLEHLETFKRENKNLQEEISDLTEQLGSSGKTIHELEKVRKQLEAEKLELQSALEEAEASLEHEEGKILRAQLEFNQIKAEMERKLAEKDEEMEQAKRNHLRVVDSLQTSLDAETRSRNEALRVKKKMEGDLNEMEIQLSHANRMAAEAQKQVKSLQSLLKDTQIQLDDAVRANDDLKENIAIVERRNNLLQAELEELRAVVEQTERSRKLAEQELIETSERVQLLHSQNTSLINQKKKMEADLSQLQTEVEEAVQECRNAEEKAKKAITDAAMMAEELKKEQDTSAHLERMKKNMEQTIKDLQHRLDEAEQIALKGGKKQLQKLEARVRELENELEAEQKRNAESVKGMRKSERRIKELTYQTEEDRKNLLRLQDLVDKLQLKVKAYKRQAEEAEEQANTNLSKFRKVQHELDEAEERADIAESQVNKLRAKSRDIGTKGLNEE
Summary of the method: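 Left-ventricle myofibrils from Yucatan minipigs were tested with a PK/LDH-coupled system, following NADH loss at 340 nm every 1.5-2 min for 75 min. Slopes were normalized to vehicle wells and fit to a 4-parameter logistic model; values are Y75 (25% ATPase reduction) or Y125 concentrations.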

[2] = tested on: Rabbit Psoas myofibrils (skeletal myosin ATPase); experiment: Myofibril ATPase assay, rabbit psoas (skeletal) myofibrils; type: biochemical; details: rabbit psoas myofibrils
Summary of the method: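 ATPase activity of Triton-washed myofibrils was measured by PK/LDH coupling, following NADH loss at 340 nm every 1.5–2 min for 75 min in PIPES/Ca/EGTA buffer at pH 7.0. Slopes, normalized to vehicle (100%), were fitted to a 4-parameter logistic model. Values are Y75 (25% inhibition) or Y125 (activators).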

[3] = tested on: Porcine atria myofibrils (atrial myosin ATPase); experiment: Myofibril ATPase assay, porcine atria myofibrils; type: biochemical; details: porcine atria myofibrils
Summary of the method: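 Porcine atrial myofibrils were tested in a PK/LDH-coupled system where ADP from myosin ATPase drives NADH oxidation. Absorbance at 340 nm was read every 1.5-2 min for 75 min and slopes were normalized to vehicle wells. A 4-parameter logistic fit gave Y75 (25% inhibition) or Y125 (activation) concentrations.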

[4] = ‡ Y125 value, not a Y75 value (125% activity relative to no compound)
[5] = Y75 value (75% activity relative to no compound)

Structure (SMILES)	Ventricular EC25 ([1]; Y75 value (no ‡ mark)) [nM]	Skeletal EC25 [2, 4]	Atrial EC25 ([3]; Y75 value (no ‡ mark)) [nM]	Skeletal EC25 ([2]; Y75 value (no ‡ mark)) [µM]	Ventricular EC25 ([1]; Y75 value) [nM]	Skeletal EC25 ([2]; Y75 value) [µM]	Atrial EC25 [3, 5] [nM]
C[C@H](NC(=O)Cc1cc2ccc(F)cc2[nH]c1=O)c1ncc(C#N)cn1 (single isomer, unassigned) [compound 2034]	100000	100.00‡ μM	100000				
C[C@H](NC(=O)C1(c2cc3c(F)c(F)ccc3[nH]c2=O)CC1)c1ccc(F)cc1F [compound 4814]	1310		230	0.19			
COC[C@H](NC(=O)Cc1c(C)c2c(C)nccc2[nH]c1=O)c1ccc(C#N)cc1F [compound 169]					10520	0.15	1060
Cc1c(C(F)(F)C(=O)N[C@@H](C)c2nccc(C#N)n2)c(=O)[nH]c2ccc(F)cc12 (single isomer, unassigned) [compound 2528]	100000	93.23‡ μM	4450				
Cc1c(C(F)(F)C(=O)N[C@H](C)c2ncc(C#N)cn2)c(=O)[nH]c2ccc(F)cc12 (single isomer, unassigned) [compound 2594]	330		230	0.33			
COc1nccc2[nH]c(=O)c([C@@H](C)C(=O)N[C@@H](C)c3ccc(F)cc3F)c(C(F)(F)F)c12 (single isomer, unassigned) [compound 425]					100000	1.31	94540
Cc1c(CC(=O)N[C@@H](C)c2ccc(C#N)cn2)c(=O)[nH]c2ccc(OC(F)(F)F)nc12 [compound 450]					100000	100.00	100000
Cc1c(CC(=O)N[C@@H](C)c2ncc(C#N)cn2)c(=O)[nH]c2ccc(F)c(C#N)c12 (single isomer, unassigned) [compound 2016]	290		120	0.05			
Cc1c(CC(=O)N[C@H](CO)c2ncccc2F)c(=O)[nH]c2ccnc(C#N)c12 (single isomer, unassigned) [compound 235]					100000	100.00	100000
Cc1c(CC(=O)N[C@H](C)c2ncc(F)cc2F)c(=O)[nH]c2ccc(F)c(C(F)(F)F)c12 [compound 9]	920		3290	0.65			
Cc1c(C2(C(=O)N[C@@H](C)c3ncc(C#N)cn3)CC2)c(=O)[nH]c2ccc(F)cc12 (single isomer, unassigned) [compound 2591]	18780		1520	100.00			
Cc1c(C2(C(=O)N[C@H](C)c3ncc(C#N)cc3F)CC2)c(=O)[nH]c2ccc(F)c(C(F)(F)F)c12 (single isomer, unassigned) [compound 4801]	100000		280	0.28			
Cc1cc(C#N)ncc1[C@H](C)NC(=O)Cc1c(C)c2c(C)c(F)ccc2[nH]c1=O [compound 1045]	1700		1500	0.44			
Cc1c(CC(=O)N[C@H](C)c2ncc(C#N)cc2F)c(=O)[nH]c2ccc(F)c(C(F)(F)F)c12 [compound 21]	130		30	0.04			
C[C@H](NC(=O)[C@@H](C)c1cc2nc(F)ccc2[nH]c1=O)c1ccc(F)cc1F (single isomer, unassigned) [compound 364]					4710	0.44	1160
C[C@H](NC(=O)[C@@H](C)c1c(C(F)(F)F)c2cc(F)ccc2[nH]c1=O)c1ccc(F)cc1F (single isomer, unassigned) [compound 99]	100000		130	0.09			
Cc1c(C(F)(F)C(=O)N[C@@H](C)c2ncc(C#N)cn2)c(=O)[nH]c2cccc(C#N)c12 (single isomer, unassigned) [compound 4839]	1850		1670	0.13			
Cc1nccc2[nH]c(=O)c(CC(=O)N[C@@H](C)c3c(F)cc(F)cc3F)c(C)c12 [compound 500]					70000	2.3	43000
